For data set [1], the target named is Cystic fibrosis transmembrane conductance regulator (Homo sapiens, UniProt P13569). Description: Corrector activity at CFTR mutant (unknown origin) by phenotypic screening assay.
The nature of data set [2]: Half life in rat. The note with it: in vivo. The data set is classed as ADME, organism-based.
Data set [3] is described as follows: Oral bioavailability in rat. The data set is classed as ADME, organism-based. Conditions: in vivo.
A short description of data set [4]: Inhibition of CYP450 (unknown origin). It counts as ADME. Conditions: human.
For data set [5], the target named is Cystic fibrosis transmembrane conductance regulator (Homo sapiens, UniProt P13569, F508DEL/G551D). Description: […] activity at human bronchial epithelium CFTR F508del and G551D mutant assessed as increase in channel gating.
Cystic fibrosis transmembrane conductance regulator (Homo sapiens, UniProt P13569, F508DEL/G551D), sequence (P13569 as listed by the source): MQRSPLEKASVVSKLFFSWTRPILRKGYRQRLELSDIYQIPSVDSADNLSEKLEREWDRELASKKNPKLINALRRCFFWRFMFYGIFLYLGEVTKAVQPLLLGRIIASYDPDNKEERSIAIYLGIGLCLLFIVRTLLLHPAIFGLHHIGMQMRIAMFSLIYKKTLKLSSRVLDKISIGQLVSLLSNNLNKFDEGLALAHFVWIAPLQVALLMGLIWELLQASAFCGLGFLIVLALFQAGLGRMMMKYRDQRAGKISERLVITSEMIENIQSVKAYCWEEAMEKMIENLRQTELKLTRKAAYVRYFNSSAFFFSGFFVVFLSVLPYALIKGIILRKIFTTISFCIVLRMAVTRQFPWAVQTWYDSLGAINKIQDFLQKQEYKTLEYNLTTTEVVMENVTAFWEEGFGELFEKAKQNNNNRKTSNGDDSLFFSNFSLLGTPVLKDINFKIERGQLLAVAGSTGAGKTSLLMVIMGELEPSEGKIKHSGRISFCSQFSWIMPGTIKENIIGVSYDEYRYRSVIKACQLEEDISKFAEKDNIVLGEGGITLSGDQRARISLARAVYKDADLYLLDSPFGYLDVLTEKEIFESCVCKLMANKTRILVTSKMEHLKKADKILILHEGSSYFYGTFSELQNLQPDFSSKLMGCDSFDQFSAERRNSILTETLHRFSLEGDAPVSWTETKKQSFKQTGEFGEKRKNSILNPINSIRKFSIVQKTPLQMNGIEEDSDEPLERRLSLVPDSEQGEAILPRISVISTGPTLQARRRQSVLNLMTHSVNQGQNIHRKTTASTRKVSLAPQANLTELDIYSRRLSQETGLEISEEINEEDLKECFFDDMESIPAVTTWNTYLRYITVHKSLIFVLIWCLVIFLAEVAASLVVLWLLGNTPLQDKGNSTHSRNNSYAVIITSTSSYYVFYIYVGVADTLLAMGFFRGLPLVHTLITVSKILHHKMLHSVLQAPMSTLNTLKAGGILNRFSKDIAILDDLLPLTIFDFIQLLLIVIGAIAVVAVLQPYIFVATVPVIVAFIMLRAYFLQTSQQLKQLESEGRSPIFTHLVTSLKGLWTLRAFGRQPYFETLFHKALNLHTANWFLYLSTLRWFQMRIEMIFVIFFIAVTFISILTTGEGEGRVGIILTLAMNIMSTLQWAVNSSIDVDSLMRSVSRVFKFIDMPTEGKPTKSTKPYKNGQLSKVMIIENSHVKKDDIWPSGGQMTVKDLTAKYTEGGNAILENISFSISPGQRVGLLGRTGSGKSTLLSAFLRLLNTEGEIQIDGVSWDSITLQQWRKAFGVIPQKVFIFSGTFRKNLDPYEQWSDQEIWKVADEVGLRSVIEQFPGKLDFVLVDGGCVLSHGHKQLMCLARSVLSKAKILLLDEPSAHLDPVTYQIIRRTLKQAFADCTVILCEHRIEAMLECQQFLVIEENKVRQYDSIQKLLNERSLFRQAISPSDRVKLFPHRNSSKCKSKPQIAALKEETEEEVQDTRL

By EC50 is commonly meant the concentration that produces a half-maximal response. For orientation: half-life means the time needed for the level to fall by half in the phase considered. A high value points to slow loss. As a reminder, the bioavailability is dose-corrected exposure relative to a reference, in per cent. High values mean good availability, low ones poor availability.

Molecules are shown by their SMILES.

Cystic fibrosis transmembrane conductance regulator (Homo sapiens, UniProt P13569), sequence (P13569 whole entry, looked up, change not shown): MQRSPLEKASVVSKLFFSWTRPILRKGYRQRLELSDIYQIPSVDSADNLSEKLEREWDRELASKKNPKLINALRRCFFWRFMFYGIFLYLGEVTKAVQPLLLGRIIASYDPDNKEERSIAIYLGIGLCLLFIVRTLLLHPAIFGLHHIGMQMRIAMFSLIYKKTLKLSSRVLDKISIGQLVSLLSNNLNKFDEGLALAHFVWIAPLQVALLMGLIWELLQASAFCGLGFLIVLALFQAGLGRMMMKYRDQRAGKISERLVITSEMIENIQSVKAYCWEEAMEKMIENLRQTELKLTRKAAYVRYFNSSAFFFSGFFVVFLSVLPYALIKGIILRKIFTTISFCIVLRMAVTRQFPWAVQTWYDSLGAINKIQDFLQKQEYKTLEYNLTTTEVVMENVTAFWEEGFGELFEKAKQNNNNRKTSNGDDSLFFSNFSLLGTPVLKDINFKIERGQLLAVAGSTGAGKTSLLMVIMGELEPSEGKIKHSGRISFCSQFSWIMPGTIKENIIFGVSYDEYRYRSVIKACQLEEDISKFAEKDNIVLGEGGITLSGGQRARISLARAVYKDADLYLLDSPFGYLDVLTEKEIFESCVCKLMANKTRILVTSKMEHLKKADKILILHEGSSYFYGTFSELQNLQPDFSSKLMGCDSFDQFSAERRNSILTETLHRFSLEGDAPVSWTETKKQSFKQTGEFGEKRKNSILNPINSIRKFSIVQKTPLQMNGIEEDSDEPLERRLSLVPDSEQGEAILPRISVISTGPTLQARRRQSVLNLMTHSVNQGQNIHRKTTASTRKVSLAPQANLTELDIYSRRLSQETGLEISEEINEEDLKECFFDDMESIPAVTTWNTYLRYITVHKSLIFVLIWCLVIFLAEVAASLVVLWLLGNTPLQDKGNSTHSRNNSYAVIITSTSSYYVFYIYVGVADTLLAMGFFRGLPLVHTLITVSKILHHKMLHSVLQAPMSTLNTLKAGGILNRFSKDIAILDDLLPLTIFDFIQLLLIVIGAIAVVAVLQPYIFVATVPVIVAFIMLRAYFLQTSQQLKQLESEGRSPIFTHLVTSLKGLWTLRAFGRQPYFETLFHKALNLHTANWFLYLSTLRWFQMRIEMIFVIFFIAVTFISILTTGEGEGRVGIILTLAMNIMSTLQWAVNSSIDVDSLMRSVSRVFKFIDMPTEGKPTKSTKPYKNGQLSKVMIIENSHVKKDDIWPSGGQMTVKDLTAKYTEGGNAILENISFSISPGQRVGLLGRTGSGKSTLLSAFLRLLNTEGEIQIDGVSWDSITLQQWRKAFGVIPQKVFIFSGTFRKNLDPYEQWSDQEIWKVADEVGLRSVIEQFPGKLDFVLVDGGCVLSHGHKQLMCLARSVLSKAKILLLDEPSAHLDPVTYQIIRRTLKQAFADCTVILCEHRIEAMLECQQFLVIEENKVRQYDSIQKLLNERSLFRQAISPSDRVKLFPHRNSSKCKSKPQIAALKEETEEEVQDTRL

`O=C(c1c[nH]c2ccccc2c1=O)N(Cc1ccccc1)Cc1ccccc1`: in data set [1], the EC50 worked out at 2100 nM.

In the case of `CC(C)(C)c1cc(C(C)(C)C)c(NC(=O)c2c[nH]c3ccccc3c2=O)cc1O` [IVACAFTOR], the values for the EC50 in data set [1] and in data set [5] were 3 nM and 236 nM, respectively. In data set [2], this compound had a half-life of 9.5 h. In data set [3], this compound returned a bioavailability of 55%. Also, the “inhibition (INH)” value in data set [4] is recorded as “Not Active”.

Regarding `O=C(Nc1ccc2cc[nH]c2c1)c1c[nH]c2ccccc2c1=O`, in data set [1], a half-maximal effect (EC50) was put at 100 nM.
